By IC50 is commonly meant the midpoint of a concentration-inhibition curve.

Structures are written as SMILES. Structures can show the parent of a compound that is named as a salt. Some results are limits rather than exact numbers.

Assay type in all cases: cell-based
For experiment [1], the target named is EGFR(D770_N771insSVD) expressing Ba/F3 stable cell line (Homo sapiens, UniProt P00533, DUP768-770, cells depend on it). Kind of experiment: Cellular proliferation (Alamar Blue) assay, EGFR D770_N771insSVD Ba/F3. The following applies: 72 hr, read-out: D770 IC50. The method in brief:
(§1)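 Alamar Blue read-out, 3 h at 37 °C, after 72 hr compound exposure of Ba/F3 transfectants (15,000 cells/well, RPMI + 10% FBS, plated 16-18 h earlier).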
(In general: The colour change of resazurin is a common sign of viable cells or microbes.)

In experiment [2] the target is EGFR (A767_dupASV) expressing Ba/F3 stable cell line (Homo sapiens, UniProt P00533, DUP767-769, cells depend on it). Kind of experiment: Cellular proliferation (Alamar Blue) assay, EGFR A767_dupASV Ba/F3. The following applies: 72 hr, read-out: A767 IC50. The method in brief: as §1
EGFR (A767_dupASV) expressing Ba/F3 stable cell line, sequence (P00533 with tags, fused parts or gaps DUP767-769): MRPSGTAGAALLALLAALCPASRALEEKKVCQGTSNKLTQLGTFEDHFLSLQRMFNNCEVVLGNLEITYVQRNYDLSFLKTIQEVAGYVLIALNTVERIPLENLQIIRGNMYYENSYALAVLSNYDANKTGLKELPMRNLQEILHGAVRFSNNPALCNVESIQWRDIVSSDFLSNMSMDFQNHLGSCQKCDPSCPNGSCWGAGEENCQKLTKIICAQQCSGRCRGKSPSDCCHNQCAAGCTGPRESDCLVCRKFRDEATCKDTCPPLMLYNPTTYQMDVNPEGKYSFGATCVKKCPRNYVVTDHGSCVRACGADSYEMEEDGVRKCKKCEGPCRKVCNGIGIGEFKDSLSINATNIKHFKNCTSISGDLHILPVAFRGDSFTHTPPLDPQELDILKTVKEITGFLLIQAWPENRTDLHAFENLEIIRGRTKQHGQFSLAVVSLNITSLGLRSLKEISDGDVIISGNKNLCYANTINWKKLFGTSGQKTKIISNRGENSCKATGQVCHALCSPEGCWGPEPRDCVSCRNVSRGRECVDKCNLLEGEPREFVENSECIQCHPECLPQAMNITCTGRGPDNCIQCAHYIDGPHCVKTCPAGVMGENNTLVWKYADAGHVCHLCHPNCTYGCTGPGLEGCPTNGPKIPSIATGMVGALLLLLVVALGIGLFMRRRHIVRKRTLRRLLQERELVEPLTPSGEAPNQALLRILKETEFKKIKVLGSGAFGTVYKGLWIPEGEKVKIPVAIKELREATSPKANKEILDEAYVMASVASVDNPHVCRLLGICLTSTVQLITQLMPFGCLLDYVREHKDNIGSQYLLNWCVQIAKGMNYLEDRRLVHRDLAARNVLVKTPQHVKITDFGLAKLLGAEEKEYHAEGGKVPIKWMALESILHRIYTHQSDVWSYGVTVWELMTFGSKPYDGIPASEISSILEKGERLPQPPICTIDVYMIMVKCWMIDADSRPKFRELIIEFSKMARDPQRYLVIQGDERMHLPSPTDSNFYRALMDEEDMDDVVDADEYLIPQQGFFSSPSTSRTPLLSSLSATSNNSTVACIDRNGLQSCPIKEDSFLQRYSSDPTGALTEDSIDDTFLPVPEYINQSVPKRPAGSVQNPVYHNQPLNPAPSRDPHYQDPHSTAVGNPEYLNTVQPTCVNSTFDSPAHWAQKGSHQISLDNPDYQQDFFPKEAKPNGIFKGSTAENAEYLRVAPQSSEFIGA
Another experiment has as its system A431 cells. Kind of experiment: Cellular proliferation (Alamar Blue) assay, A431. The following applies: Homo sapiens, A-431; A431 cells, Alamar Blue, 72 hr; read-out: A431 IC50.
Experiment [3] has as its target HER2 (A775_G776insYVMA) expressing Ba/F3 stable cell line (Homo sapiens, UniProt P04626, DUP772-775, cells depend on it). Kind of experiment: Cellular proliferation (Alamar Blue) assay, HER2 A775_G776insYVMA Ba/F3. The following applies: 72 hr, read-out: YVMA IC50. An outline of the steps: as §1

HER2 (A775_G776insYVMA) expressing Ba/F3 stable cell line, sequence (P04626 with tags, fused parts or gaps DUP772-775): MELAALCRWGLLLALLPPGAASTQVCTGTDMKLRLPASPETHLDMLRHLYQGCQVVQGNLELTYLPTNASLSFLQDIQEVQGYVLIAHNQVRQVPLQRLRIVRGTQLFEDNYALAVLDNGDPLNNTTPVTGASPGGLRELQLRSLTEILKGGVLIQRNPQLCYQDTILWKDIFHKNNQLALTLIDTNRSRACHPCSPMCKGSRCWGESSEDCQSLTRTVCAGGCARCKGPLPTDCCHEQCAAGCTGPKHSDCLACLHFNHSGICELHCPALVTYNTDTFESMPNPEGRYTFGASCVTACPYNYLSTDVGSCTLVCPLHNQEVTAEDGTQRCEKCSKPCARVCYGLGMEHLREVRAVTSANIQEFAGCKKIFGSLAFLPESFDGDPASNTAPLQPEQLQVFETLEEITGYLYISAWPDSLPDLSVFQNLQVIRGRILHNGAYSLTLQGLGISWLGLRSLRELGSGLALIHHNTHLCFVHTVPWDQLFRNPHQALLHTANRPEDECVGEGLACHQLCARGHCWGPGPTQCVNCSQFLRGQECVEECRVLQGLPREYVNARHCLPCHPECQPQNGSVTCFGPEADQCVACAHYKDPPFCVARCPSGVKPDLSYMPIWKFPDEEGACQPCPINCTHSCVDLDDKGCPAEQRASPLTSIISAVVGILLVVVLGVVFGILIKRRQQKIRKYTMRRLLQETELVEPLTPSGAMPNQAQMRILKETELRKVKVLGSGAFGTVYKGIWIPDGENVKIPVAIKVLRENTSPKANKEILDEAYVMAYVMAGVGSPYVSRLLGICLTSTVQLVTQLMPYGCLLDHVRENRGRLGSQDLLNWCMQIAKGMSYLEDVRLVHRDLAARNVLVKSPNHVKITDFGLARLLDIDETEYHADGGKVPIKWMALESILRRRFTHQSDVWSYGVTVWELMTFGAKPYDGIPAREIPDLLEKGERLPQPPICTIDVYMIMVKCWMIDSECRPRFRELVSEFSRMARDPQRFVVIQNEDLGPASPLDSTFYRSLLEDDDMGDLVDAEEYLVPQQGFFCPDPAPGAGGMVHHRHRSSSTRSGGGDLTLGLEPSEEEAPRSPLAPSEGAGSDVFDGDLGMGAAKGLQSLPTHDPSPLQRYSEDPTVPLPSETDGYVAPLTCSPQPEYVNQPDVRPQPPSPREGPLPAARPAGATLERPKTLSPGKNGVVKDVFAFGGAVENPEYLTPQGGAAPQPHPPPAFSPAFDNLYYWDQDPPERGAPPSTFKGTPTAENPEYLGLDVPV
EGFR(D770_N771insSVD) expressing Ba/F3 stable cell line, sequence (P00533 with tags, fused parts or gaps DUP768-770): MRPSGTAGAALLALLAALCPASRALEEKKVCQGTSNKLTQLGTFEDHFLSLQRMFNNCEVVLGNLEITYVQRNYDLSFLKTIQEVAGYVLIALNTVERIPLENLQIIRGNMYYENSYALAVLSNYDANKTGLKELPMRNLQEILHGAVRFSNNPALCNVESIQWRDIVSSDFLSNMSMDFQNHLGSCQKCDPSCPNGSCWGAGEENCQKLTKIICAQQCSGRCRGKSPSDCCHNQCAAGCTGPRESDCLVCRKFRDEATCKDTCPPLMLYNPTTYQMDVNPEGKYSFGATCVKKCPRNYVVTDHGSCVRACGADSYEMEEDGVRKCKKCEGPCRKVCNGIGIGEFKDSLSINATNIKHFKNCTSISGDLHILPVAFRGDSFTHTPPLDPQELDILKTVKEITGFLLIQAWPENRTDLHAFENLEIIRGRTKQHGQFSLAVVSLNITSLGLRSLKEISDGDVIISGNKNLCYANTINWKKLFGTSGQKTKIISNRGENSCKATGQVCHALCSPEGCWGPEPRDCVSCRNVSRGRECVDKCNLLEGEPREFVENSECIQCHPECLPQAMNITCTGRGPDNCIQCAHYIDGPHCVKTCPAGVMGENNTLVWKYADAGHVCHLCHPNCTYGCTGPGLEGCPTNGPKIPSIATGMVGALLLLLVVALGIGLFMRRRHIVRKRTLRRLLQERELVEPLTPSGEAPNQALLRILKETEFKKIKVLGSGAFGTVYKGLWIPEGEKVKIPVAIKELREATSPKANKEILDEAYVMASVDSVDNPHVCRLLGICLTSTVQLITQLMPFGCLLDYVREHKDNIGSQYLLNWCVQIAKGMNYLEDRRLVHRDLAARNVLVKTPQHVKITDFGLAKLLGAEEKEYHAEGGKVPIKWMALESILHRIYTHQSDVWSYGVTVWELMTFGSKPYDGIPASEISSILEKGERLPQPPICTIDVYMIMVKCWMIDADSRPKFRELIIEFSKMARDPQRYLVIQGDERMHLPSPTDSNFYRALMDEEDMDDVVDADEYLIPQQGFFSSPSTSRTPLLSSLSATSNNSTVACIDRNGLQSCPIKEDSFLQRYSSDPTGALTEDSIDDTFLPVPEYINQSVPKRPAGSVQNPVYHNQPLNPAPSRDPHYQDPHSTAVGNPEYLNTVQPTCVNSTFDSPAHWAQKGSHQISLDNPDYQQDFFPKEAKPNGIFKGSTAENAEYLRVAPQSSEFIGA

As for `C=CC(=O)Nc1ccc(F)c(Nc2nc(Nc3cnn(C)c3)ncc2-c2ccc(CC(F)(F)F)cc2)c1` [Compound 130, N-(4-fluoro-3-((2-((1-methyl-1H-pyrazol-4-yl)amino)-5-(4-(2,2,2-trifluoroethyl)phenyl)pyrimidin-4-yl)amino)phenyl)acrylamide trifluoroacetate], the GI50 is 26 nM in experiment [1], 27 nM in experiment [2] and 83 nM in experiment [3]. In the experiment on A431 cells, the IC50 amounted to 8 nM.

On to `C=CC(=O)Nc1ccc(F)c(Nc2nc(Nc3cnn(C)c3)ncc2-c2ccc3cccnc3c2)c1` [Compound 131, N-(4-fluoro-3-((2-((1-methyl-1H-pyrazol-4-yl)amino)-5-(quinolin-7-yl)pyrimidin-4-yl)amino)phenyl)acrylamide], for which the results for the GI50 in experiment [1], in experiment [2] and in experiment [3] were 202 nM, 758 nM and 348 nM, respectively. Besides, the IC50 in the experiment on A431 cells is 365 nM.

As to `C=CC(=O)Nc1ccc(F)c(Nc2nc(Nc3cnn(C)c3)ncc2-c2ccn3ccnc3c2)c1` [Compound 132, N-(4-fluoro-3-((5-(imidazo[1,2-a]pyridin-7-yl)-2-((1-methyl-1H-pyrazol-4-yl)amino)pyrimidin-4-yl)amino)phenyl)acrylamide], the GI50 in experiment [1] turned out to be 203 nM; in experiment [2] it was 368 nM; in experiment [3] it was 151 nM. The IC50 in the experiment with A431 cells was found to be 504 nM.

In the case of `C=CC(=O)Nc1ccc(F)c(Nc2nc(Nc3cnn(C)c3)ncc2-c2cccc3ccccc23)c1` [Compound 136, N-(4-fluoro-3-((2-((1-methyl-1H-pyrazol-4-yl)amino)-5-(naphthalen-1-yl)pyrimidin-4-yl)amino)phenyl)acrylamide trifluoroacetate], the GI50 is 106 nM in experiment [1], 299 nM in experiment [2] and 412 nM in experiment [3]. Also, the IC50 in the experiment with A431 cells came out at 40 nM.

Regarding `C=CC(=O)Nc1ccc(F)c(Nc2nc(Nc3cnn(C)c3)ncc2-c2ccncc2)c1` [Compound 137, N-(4-fluoro-3-((2-((1-methyl-1H-pyrazol-4-yl)amino)-5-(pyridin-4-yl)pyrimidin-4-yl)amino)phenyl)acrylamide], the figures for the GI50 in experiment [1], in experiment [2] and in experiment [3] were 254 nM, 325 nM and 751 nM, respectively. Also, the IC50 with A431 cells was over 10000 nM.

As to `C=CC(=O)Nc1ccc(F)c(Nc2nc(Nc3cn(C)nc3C(F)(F)F)ncc2-c2ccc(C(F)(F)F)cc2)c1` [Compound 146, N-(4-fluoro-3-((2-((1-methyl-3-(trifluoromethyl)-1H-pyrazol-4-yl)amino)-5-(4-(trifluoromethyl)phenyl)pyrimidin-4-yl)amino)phenyl)acrylamide trifluoroacetate], the GI50 in experiment [1] is 342 nM; in experiment [2], 279 nM; in experiment [3] it was 6130 nM. Also, the IC50 in the experiment on A431 cells came to 274 nM.

As to `C=CC(=O)Nc1ccc(F)c(Nc2nc(Nc3cnn(C)c3)ncc2-c2ccc3ccccc3c2)c1` [Compound 149, N-(4-fluoro-3-((2-((1-methyl-1H-pyrazol-4-yl)amino)-5-(naphthalen-2-yl)pyrimidin-4-yl)amino)phenyl)acrylamide trifluoroacetate], the values for the GI50 in experiment [1], in experiment [2] and in experiment [3] were 308 nM, 747 nM and 501 nM, respectively. In the experiment on A431 cells, the IC50 was found to be 469 nM.

Turning to `C=CC(=O)Nc1cccc(Nc2nc(Nc3cnn(C)c3)nnc2Cl)c1` [Compound 156, N-(3-((6-chloro-3-((1-methyl-1H-pyrazol-4-yl)amino)-1,2,4-triazin-5-yl)amino)phenyl)acrylamide], the values for the GI50 in experiment [1], in experiment [2] and in experiment [3] were 1890 nM, 2440 nM and 1520 nM, respectively. Moreover, the IC50 in the experiment on A431 cells is 8020 nM.

Consider `C=CC(=O)Nc1cccc(Oc2nc(Nc3cnn(C)c3)nnc2Cl)c1` [Compound 157, N-(3-((6-chloro-3-((1-methyl-1H-pyrazol-4-yl)amino)-1,2,4-triazin-5-yl)oxy)phenyl)acrylamide], for which the values for the GI50 in experiment [1], in experiment [2] and in experiment [3] were over 10000 nM, over 10000 nM and 3660 nM, respectively. Besides, the IC50 in the experiment on A431 cells is over 10000 nM.

As to `C=CC(=O)Nc1cccc(Oc2nc(Nc3cnn(C)c3)cnc2C)c1` [Compound 158, N-(3-((3-methyl-6-((1-methyl-1H-pyrazol-4-yl)amino)pyrazin-2-yl)oxy)phenyl)acrylamide], the GI50 in experiment [1], in experiment [2] and in experiment [3] was over 10000 nM each time. The IC50 in the experiment with A431 cells was over 10000 nM.

In the case of `C=CC(=O)Nc1ccc(F)c(-c2nc(Nc3cnn(C)c3)ncc2Cl)c1` [Compound 159, N-(3-{5-chloro-2-[(1-methyl-1H-pyrazol-4-yl)amino]pyrimidin-4-yl}-4-fluorophenyl)prop-2-enamide], the GI50 in experiment [1] is 9550 nM; in experiment [2], 2780 nM; in experiment [3], over 10000 nM. Also, in the experiment with A431 cells, the IC50 is over 10000 nM.

`CN(C)C/C=C/C(=O)Nc1ccc(F)c(-c2nc(Nc3cnn(C)c3)ncc2Cl)c1` [Compound 160, (E)-N-(3-(5-chloro-2-((1-methyl-1H-pyrazol-4-yl)amino)pyrimidin-4-yl)-4-fluorophenyl)-4-(dimethylamino)but-2-enamide]: the GI50 in experiment [1], in experiment [2] and in experiment [3] was over 10000 nM throughout. In the experiment on A431 cells, the IC50 is over 10000 nM.

As to `C=CC(=O)Nc1ccc(F)c(Nc2nc(Nc3cnn(C)c3)ncc2C#Cc2ccccc2)c1` [Compound 161, N-[4-fluoro-3-({2-[(1-methyl-1H-pyrazol-4-yl)amino]-5-(2-phenylethynyl)pyrimidin-4-yl}amino)phenyl]prop-2-enamide], the GI50 in experiment [1] was 288 nM; in experiment [2], 289 nM; in experiment [3] it was 897 nM. For the same compound, the IC50 in the experiment with A431 cells was over 10000 nM.

Take `CN(C)C/C=C/C(=O)Nc1ccc(F)c(Nc2nc(Nc3cnn(C)c3)ncc2C#Cc2ccccc2)c1` [Compound 162, (E)-4-(dimethylamino)-N-(4-fluoro-3-((2-((1-methyl-1H-pyrazol-4-yl)amino)-5-(phenylethynyl)pyrimidin-4-yl)amino)phenyl)but-2-enamide]: the GI50 in experiment [1] is 1850 nM; in experiment [2], 656 nM; in experiment [3] it was 1880 nM. Moreover, the IC50 in the experiment with A431 cells is 2850 nM.

Turning to `C=CC(=O)Nc1ccc(C(=O)Nc2ccccc2)c(Nc2ccnc(Nc3cnn(C)c3)n2)c1` [Compound 164, 4-acrylamido-2-((2-((1-methyl-1H-pyrazol-4-yl)amino)pyrimidin-4-yl)amino)-N-phenylbenzamide], the results for the GI50 in experiment [1], in experiment [2] and in experiment [3] were over 10000 nM, over 10000 nM and 9490 nM, respectively. The IC50 in the experiment with A431 cells was over 10000 nM.

For the compound `C=CC(=O)Nc1ccc(Cl)c(Nc2ccnc(Nc3cnn(C)c3)n2)c1` [Compound 165, N4-(5-amino-2-chlorophenyl)-N2-(1-methyl-1H-pyrazol-4-yl)pyrimidine-2,4-diamineprop-2-enoyl chloride], the GI50 was over 10000 nM in experiment [1], over 10000 nM in experiment [2] and 9930 nM in experiment [3]. In the experiment on A431 cells, the IC50 was over 10000 nM.

With `C=CC(=O)Nc1ccc(F)c(Oc2nc(Nc3cnn(C)c3)ncc2Cl)c1` [Compound 166, N-(3-((5-chloro-2-((1-methyl-1H-pyrazol-4-yl)amino)pyrimidin-4-yl)oxy)-4-fluorophenyl)acrylamide], the GI50 in experiment [1] was found to be 1320 nM; in experiment [2] it was 1250 nM; in experiment [3], 1690 nM. For the same compound, the IC50 in the experiment on A431 cells was over 10000 nM.

As to `C=CC(=O)Nc1ccc(F)c(Oc2nc(Nc3cnn(CCO)c3)ncc2Cl)c1` [Compound 167, N-(3-((5-chloro-2-((1-(2-hydroxyethyl)-1H-pyrazol-4-yl)amino)pyrimidin-4-yl)oxy)-4-fluorophenyl)acrylamide], the GI50 in experiment [1] is 2150 nM; in experiment [2] it was 1330 nM; in experiment [3], 1750 nM. Further, the IC50 in the experiment with A431 cells was over 10000 nM.

Consider `C=CC(=O)Nc1ccc(F)c(Oc2nc(Nc3cnn(C4CCN(C)CC4)c3)ncc2Cl)c1` [Compound 168, N-(3-((5-chloro-2-((1-(1-methylpiperidin-4-yl)-1H-pyrazol-4-yl)amino)pyrimidin-4-yl)oxy)-4-fluorophenyl)acrylamide], for which the results for the GI50 in experiment [1], in experiment [2] and in experiment [3] were 929 nM, 904 nM and 2260 nM, respectively. For the same compound, in the experiment with A431 cells, the IC50 is over 10000 nM.

As for `C=CC(=O)Nc1ccc(OC)c(Oc2nc(Nc3cnn(C4CCN(C)CC4)c3)ncc2Cl)c1` [Compound 170, N-(3-((5-chloro-2-((1-(1-methylpiperidin-4-yl)-1H-pyrazol-4-yl)amino)pyrimidin-4-yl)oxy)-4-methoxyphenyl)acrylamide], the GI50 in experiment [1] is over 10000 nM; in experiment [2], over 10000 nM; in experiment [3], 9710 nM. Also, the IC50 with A431 cells is over 10000 nM.

Take `C=CC(=O)Nc1ccc(OC)c(Oc2nc(Nc3cnn(C)c3)ncc2Cl)c1` [Compound 172, N-[3-({5-chloro-2-[(1-methyl-1H-pyrazol-4-yl)amino]pyrimidin-4-yl}oxy)-4-methoxyphenyl] prop-2-enamide]: the GI50 in experiment [1], in experiment [2] and in experiment [3] was over 10000 nM each time. The IC50 with A431 cells is over 10000 nM.

For the compound `C=CC(=O)Nc1cccc(F)c1CNc1nc(Nc2cnn(C)c2)ncc1Cl` [Compound 173, N-(2-(((5-chloro-2-((1-methyl-1H-pyrazol-4-yl)amino)pyrimidin-4-yl)amino)methyl)-3-fluorophenyl)acrylamide], the GI50 in experiment [1] is 9780 nM; in experiment [2], over 10000 nM; in experiment [3], 2000 nM. Further, the IC50 with A431 cells was over 10000 nM.

The values above are taken from patent publication US12686673B2 (Blueprint Medicines Corporation, priority 2020, dated 2026).
